Structures are written as SMILES.

Test in all cases: Protease Inhibition Assay
The target of test [1] is T1, Dimer of Gag-Pol polyprotein [490-588,L523I,E525D,M526I,I544V,L553H,H559K,V572F,L579M] (Human immunodeficiency virus 1, UniProt P05959, E525D/H559K/I544V/L523I/L553H/L579M/M526I/V572F).
T1 construct: 490-588

For test [2], the target named is T2, Dimer of Gag-Pol polyprotein [482-580,I502K,I528M,T553A] (Human immunodeficiency virus 1, UniProt P24740, I502K/I528M/T553A).
T2 construct: 482-580
Particulars: pH 4.7; 37 °C.

Test [3] addresses T3, Dimer of Gag-Pol polyprotein [482-580,I502K,I528M,T553A,V564F] (Human immunodeficiency virus 1, UniProt P24740, I502K/I528M/T553A/V564F).
T3 construct: 482-580

The target of test [4] is T4, Dimer of Gag-Pol polyprotein [490-588,L523I,E525D,M526I,I544V,L553H,H559K,L579M] (Human immunodeficiency virus 1, UniProt P05959, E525D/H559K/I544V/L523I/L553H/L579M/M526I).
T4 construct: 490-588

The target of test [5] is T5, Dimer of Gag-Pol polyprotein [501-599] (Human immunodeficiency virus 1, UniProt P03367).
T5 construct: 501-599
Particulars: pH 4.7; 37 °C.

Test [6] has as its target T6, Dimer of Gag-Pol polyprotein [501-599,V583F] (Human immunodeficiency virus 1, UniProt P03367, V583F).
T6 construct: 501-599
The settings on record: pH 4.7; 37 °C.

As to `CC(C)CN(C[C@@H](O)[C@H](Cc1ccccc1)NC(=O)O[C@H]1CCOC1)S(=O)(=O)c1ccc(N)cc1` [VX-478], the Ki (usually the dissociation constant of the complex between target and ligand, obtained from inhibition or displacement) was 23 nM in test [1], 0.4 nM in test [2], 1.2 nM in test [3] and 1.4 nM in test [4].
Turning to `Cc1c(O)cccc1C(=O)N[C@@H](CSc1ccccc1)[C@H](O)CN1C[C@H]2CCCC[C@H]2C[C@H]1C(=O)NC(C)(C)C` [Viracept], the results for the Ki in test [1] and in test [4] were 146 nM and 17 nM, respectively.
For the molecule `CC(C)(C)NC(=O)[C@@H]1C[C@@H]2CCCC[C@@H]2CN1C[C@@H](O)[C@H](Cc1ccccc1)NC(=O)[C@H](CC(N)=O)NC(=O)c1ccc2ccccc2n1` [SQV], the Ki in test [1] turned out to be 24 nM; in test [2] it was 1.8 nM; in test [3], 0.43 nM; in test [4], 48 nM.
The like results for `CC(C)(C)NC(=O)[C@@H]1CN(Cc2cccnc2)CCN1C[C@@H](O)C[C@@H](Cc1ccccc1)C(=O)N[C@H]1c2ccccc2C[C@H]1O` [Crixivan] were, in that order, 1620 nM, 6.9 nM, 108 nM and 42 nM.
For the molecule `Cc1cccc(C)c1OCC(=O)N[C@@H](Cc1ccccc1)[C@@H](O)C[C@H](Cc1ccccc1)NC(=O)[C@H](C(C)C)N1CCCNC1=O` [(2S)-N-[(2S,4S,5S)-5-[2-(2,6-dimethylphenoxy)acetamido]-4-hydroxy-1,6-diphenylhexan-2-yl]-3-methyl-2-(2-oxo-1,3-diazinan-1-yl)butanamide], the Ki stood at 0.05 nM in test [5]; 9 nM in test [1]; 0.2 nM in test [6]; 0.019 nM in test [2]; 0.48 nM in test [3]; 0.5 nM in test [4].
For `COC(=O)N[C@H](C(=O)N[C@@H](Cc1ccccc1)[C@@H](O)CN(Cc1ccc(-c2ccccn2)cc1)NC(=O)[C@@H](NC(=O)OC)C(C)(C)C)C(C)(C)C` [CGP 73547], the Ki was 0.7 nM in test [1]; 0.56 nM in test [6]; 0.24 nM in test [2]; 0.57 nM in test [3]; 1.1 nM in test [4].

The values above are taken from BindingDB's records for doi:10.1021/bi051886s (Johnson & Johnson Pharmaceutical, 2006).
